{"source": "patent US20250171459A1", "about": "“2-METHYL-4',5'-DIHYDROSPIRO[PIPERIDINE-4,7'-THIENO[2,3-C]PYRAN] DERIVATIVES AS INHIBITORS OF APOL1 AND METHODS OF USING SAME” (Vertex Pharmaceuticals Incorporated, priority 2022, published 2025)", "target": "T1, APOL1 (Homo sapiens, UniProt O14791)", "T1 sequence (O14791 1-398 S342G/I384M)": "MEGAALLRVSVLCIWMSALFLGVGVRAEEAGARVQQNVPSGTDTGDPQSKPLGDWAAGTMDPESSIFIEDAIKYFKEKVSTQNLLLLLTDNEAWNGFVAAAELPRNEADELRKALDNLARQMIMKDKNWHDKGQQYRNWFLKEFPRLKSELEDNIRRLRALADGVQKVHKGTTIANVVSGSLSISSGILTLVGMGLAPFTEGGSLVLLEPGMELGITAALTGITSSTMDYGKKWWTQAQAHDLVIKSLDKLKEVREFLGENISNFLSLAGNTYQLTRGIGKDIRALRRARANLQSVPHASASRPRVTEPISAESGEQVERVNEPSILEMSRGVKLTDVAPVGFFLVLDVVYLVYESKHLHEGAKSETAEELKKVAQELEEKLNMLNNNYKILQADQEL", "assay": "MultiTox-Fluor Multiplex Cytotoxicity Assay in tet-inducible APOL1 T-REx-HEK293 cells (cell rescue, ratio of dead to live cells)", "type": "cell-based", "settings": "tet-inducible transgenic APOL1 T-REx-HEK293 cell lines, 50 ng/mL tet, 24 hours; read-out: IP50 (i.e., IC50 for cell proliferation)", "procedure,_shortened": "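T-REx-HEK293 cells with tet-inducible APOL1 were treated with compound (10 μM top, 10-point 3-fold dilution, duplicate) plus 50 ng/mL tetracycline for 24 h at 37° C, in DMEM with 2% tet-free FBS. MultiTox-Fluor protease signals gave a dead/live ratio, normalized to no tet (100% viability) and tet alone (0%).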", "data": [{"smiles": "CCc1cc2c(s1)CCO[C@@]21CCN(Cc2cnc(N[C@@H]3C=C[C@H](CO)C3)nc2)[C@@H](C)C1", "note": "[Compound 200, [(1R,4S)-4-[[5-[[(2′S,4R)-2-ethyl-2′-methyl-spiro[6,7-dihydrothieno[3,2-c]pyran-4,4′-piperidine]-1′-yl]methyl]pyrimidin-2-yl]amino]cyclopent-2-en-1-yl]methanol]", "values": [{"measurement": "IC50", "result": "< 100", "unit": "nM"}]}, {"smiles": "C[C@H]1C[C@@]2(CCN1Cc1cn(CC(O)C(C)(C)O)nn1)OCCc1cc(CC(F)F)sc12", "note": "(stereo partly shown) [Compound 548]", "values": [{"measurement": "IC50", "result": "< 100", "unit": "nM"}]}, {"smiles": "CCc1cc2c(s1)CCO[C@@]21CCN(CC2CN(C(=O)CN3CCS(=O)(=O)CC3)C2)[C@@H](C)C1", "note": "[Compound 445]", "values": [{"measurement": "IC50", "result": "< 100", "unit": "nM"}]}, {"smiles": "C[C@H]1C[C@@]2(CCN1Cc1cccc(Cl)c1O)OC[C@H](O)c1cc(Cl)sc12", "note": "[Compound 766, (2′S,4R,7R)-2-chloro-1′-[(3-chloro-2-hydroxy-phenyl)methyl]-2′-methyl-spiro[4,5-dihydrothieno[2,3-c]pyran-7,4′-piperidine]-4-ol]", "values": [{"measurement": "IC50", "result": "500 to 1000", "unit": "nM"}]}, {"smiles": "COCc1cc2c(s1)[C@]1(CCN(Cc3cnn(CCS(C)(=O)=O)c3)[C@@H](C)C1)OCC2", "note": "[Compound 1017, (2′S, 7R)-2-(methoxymethyl)-2′-methyl-1′-[[1-(2-methylsulfonylethyl)pyrazol-4-yl]methyl]spiro[4,5-dihydrothieno[2,3-c]pyran-7,4′-piperidine]]", "values": [{"measurement": "IC50", "result": "100 to 500", "unit": "nM"}]}, {"smiles": "C[C@H]1C[C@@]2(CCN1Cc1cn3c(n1)CCC3)OCCc1cc(Cl)sc12", "note": "[Compound 679]", "values": [{"measurement": "IC50", "result": "500 to 1000", "unit": "nM"}]}, {"smiles": "C[C@H]1C[C@@]2(CCN1Cc1ccc(F)cn1)OCCc1c2sc(Cl)c1CO", "note": "[Compound 726]", "values": [{"measurement": "IC50", "result": "500 to 1000", "unit": "nM"}]}, {"smiles": "C[C@H]1C[C@@]2(CCN1Cc1cnn(C)c1)OCC(O)c1sc(C(F)(F)F)cc12", "note": "(stereo partly drawn) [Compound 542, (2′S,4R)-2′-methyl-1′-[(1-methylpyrazol-4-yl)methyl]-2-(trifluoromethyl)spiro[6,7-dihydrothieno[3,2-c]pyran-4,4′-piperidine]-7-ol]", "values": [{"measurement": "IC50", "result": "< 100", "unit": "nM"}]}, {"smiles": "CCc1cc2c(s1)CCO[C@@]21CCN(CC2CN(C(=O)c3cc[nH]n3)C2)[C@@H](C)C1", "note": "[Compound 469]", "values": [{"measurement": "IC50", "result": "< 100", "unit": "nM"}]}, {"smiles": "C[C@H]1C[C@@]2(CCN1Cc1ccc(N(CCO)CCO)cc1)OCCc1cc(Cl)sc12", "note": "[Compound 636]", "values": [{"measurement": "IC50", "result": "< 100", "unit": "nM"}]}, {"smiles": "CCc1cc2c(s1)CCOC21CCN(Cc2c[nH]cn2)CC1", "note": "[Compound 1141]", "values": [{"measurement": "IC50", "result": "500 to 1000", "unit": "nM"}]}, {"smiles": "CCc1cc2c(s1)CCO[C@@]21CCN(C[C@H]2C[C@@H](NC(=O)c3oncc3C)C2)[C@@H](C)C1", "note": "[Compound 308]", "values": [{"measurement": "IC50", "result": "< 100", "unit": "nM"}]}, {"smiles": "CCc1cc2c(s1)CCO[C@@]21CCN([C@H]2C[C@H](NC(=O)OC(C)(C)C)C2)[C@@H](C)C1", "note": "[Compound 297]", "values": [{"measurement": "IC50", "result": "500 to 1000", "unit": "nM"}]}, {"smiles": "CCc1cc2c(s1)CCO[C@@]21CCN(C[C@H]2C[C@@H](NC(=O)C3CC(F)(F)C3)C2)[C@@H](C)C1", "note": "[Compound 300, N-[3-[[(2′S,4R)-2-ethyl-2′-methyl-spiro[6,7-dihydrothieno[3,2-c]pyran-4,4′-piperidine]-1′-yl]methyl]cyclobutyl]-3,3-difluoro-cyclobutanecarboxamide]", "values": [{"measurement": "IC50", "result": "< 100", "unit": "nM"}]}, {"smiles": "CO[C@]1(C(F)F)CO[C@@]2(CCN(Cc3cnn(CCS(C)(=O)=O)c3)[C@@H](C)C2)c2sc(Cl)cc21", "note": "[Compound 835]", "values": [{"measurement": "IC50", "result": "< 100", "unit": "nM"}]}, {"smiles": "CCc1cc2c(s1)CCO[C@@]21CCN(C[C@H]2C[C@@H](NS(=O)(=O)C3COC3)C2)[C@@H](C)C1", "note": "[Compound 401]", "values": [{"measurement": "IC50", "result": "< 100", "unit": "nM"}]}, {"smiles": "COc1cncc(CN2CC[C@]3(C[C@@H]2C)OC[C@H](O)c2cc(Cl)sc23)c1", "note": "[Compound 806]", "values": [{"measurement": "IC50", "result": "100 to 500", "unit": "nM"}]}, {"smiles": "CCc1cc2c(s1)CCOC21CCN(Cc2cn(Cc3cc(COC)[nH]n3)nn2)CC1", "note": "[Compound 1108]", "values": [{"measurement": "IC50", "result": "500 to 1000", "unit": "nM"}]}, {"smiles": "CCc1cc2c(s1)CCO[C@@]21CCN(C[C@H]2C[C@@H](NC(=O)OCC3CCCCC3)C2)[C@@H](C)C1", "note": "[Compound 383]", "values": [{"measurement": "IC50", "result": "100 to 500", "unit": "nM"}]}, {"smiles": "Cc1cc2c(s1)CCO[C@@]21CCN(CC(O)C(N)=O)[C@@H](C)C1", "note": "(stereo partly shown) [Compound 502]", "values": [{"measurement": "IC50", "result": "100 to 500", "unit": "nM"}]}, {"smiles": "CCc1cc2c(s1)CCO[C@@]21CCN(Cc2cn[nH]c2)[C@@H](C)C1", "note": "[Compound 265]", "values": [{"measurement": "IC50", "result": "< 100", "unit": "nM"}]}, {"smiles": "CCc1cc2c(s1)CCO[C@@]21CCN(Cc2cn(Cc3ncccn3)nn2)[C@@H](C)C1", "note": "[Compound 51]", "values": [{"measurement": "IC50", "result": "100 to 500", "unit": "nM"}]}]}
